Assay results from ChEMBL document CHEMBL3045502, “Microwave-assisted synthesis of some new tetrazolo[1,5-a]quinoline-based benzimidazoles catalyzed by p-TsOH and investigation of their antimicrobial activity” (2011).
≈ marks a conversion by molar mass, not a printed value.

Key:
Assay type in all cases: functional
[1] = system: Vibrio cholerae; assay: Antimicrobial activity against Vibrio cholerae MTCC 3906 after 24 to 48 hr by broth microdilution method
[2] = system: Clostridium tetani; assay: Antimicrobial activity against Clostridium tetani MTCC 449 after 24 to 48 hr by broth microdilution method
[3] = system: Escherichia coli; assay: Antimicrobial activity against Escherichia coli MTCC 443 after 24 to 48 hr by broth microdilution method
[4] = system: Aspergillus fumigatus; assay: Antimicrobial activity against Aspergillus fumigatus MTCC 3008 after 24 to 48 hr by broth microdilution method
[5] = system: Salmonella typhimurium; assay: (§1) Antimicrobial activity against Salmonella enterica subsp. enterica serovar Typhi MTCC 98 after 24 to 48 hr by broth microdilution method
[6] = system: Streptococcus pneumoniae; assay: Antimicrobial activity against Streptococcus pneumoniae MTCC 1936 after 24 to 48 hr by broth microdilution method
[7] = system: Bacillus subtilis; assay: Antimicrobial activity against Bacillus subtilis MTCC 441 after 24 to 48 hr by broth microdilution method
[8] = system: Candida albicans; assay: Antimicrobial activity against Candida albicans MTCC 227 after 24 to 48 hr by broth microdilution method
[9] = as §1

Molecule	MIC [1]	MIC [2]	MIC [3]	MIC [4]	MIC [5]	MIC [6]	MIC [7]	MIC [8]	MIC [9]
COc1ccc2c(c1)cc(-c1nc3cc(Br)ccc3[nH]1)c1nnnn12	500 µg/mL (≈ 1270 µM)	250 µg/mL (≈ 633 µM)	500 µg/mL (≈ 1270 µM)	1000 µg/mL (≈ 2530 µM)	500 µg/mL (≈ 1270 µM)	1000 µg/mL (≈ 2530 µM)	500 µg/mL (≈ 1270 µM)	1000 µg/mL (≈ 2530 µM)	–
Cc1ccc2c(c1)cc(-c1nc3cc(Br)ccc3[nH]1)c1nnnn12	250 µg/mL (≈ 659 µM)	1000 µg/mL (≈ 2640 µM)	500 µg/mL (≈ 1320 µM)	> 1000 µg/mL	500 µg/mL (≈ 1320 µM)	250 µg/mL (≈ 659 µM)	500 µg/mL (≈ 1320 µM)	1000 µg/mL (≈ 2640 µM)	–
Clc1ccc2[nH]c(-c3cc4ccccc4n4nnnc34)nc2c1	500 µg/mL (≈ 1560 µM)	500 µg/mL (≈ 1560 µM)	250 µg/mL (≈ 779 µM)	1000 µg/mL (≈ 3120 µM)	100 µg/mL (≈ 312 µM)	500 µg/mL (≈ 1560 µM)	500 µg/mL (≈ 1560 µM)	500 µg/mL (≈ 1560 µM)	–
COc1ccc2c(c1)cc(-c1nc3cc(Cl)ccc3[nH]1)c1nnnn12	500 µg/mL (≈ 1430 µM)	500 µg/mL (≈ 1430 µM)	500 µg/mL (≈ 1430 µM)	500 µg/mL (≈ 1430 µM)	500 µg/mL (≈ 1430 µM)	500 µg/mL (≈ 1430 µM)	125 µg/mL (≈ 356 µM)	250 µg/mL (≈ 713 µM)	–
Cc1ccc2c(c1)cc(-c1nc3cc(Cl)ccc3[nH]1)c1nnnn12	500 µg/mL (≈ 1490 µM)	500 µg/mL (≈ 1490 µM)	250 µg/mL (≈ 747 µM)	> 1000 µg/mL	500 µg/mL (≈ 1490 µM)	500 µg/mL (≈ 1490 µM)	500 µg/mL (≈ 1490 µM)	1000 µg/mL (≈ 2990 µM)	–
Cc1ccc2[nH]c(-c3cc4ccccc4n4nnnc34)nc2c1	500 µg/mL (≈ 1660 µM)	500 µg/mL (≈ 1660 µM)	125 µg/mL (≈ 416 µM)	1000 µg/mL (≈ 3330 µM)	250 µg/mL (≈ 832 µM)	500 µg/mL (≈ 1660 µM)	250 µg/mL (≈ 832 µM)	500 µg/mL (≈ 1660 µM)	–
NYSTATIN	–	–	–	100 µg/mL	–	–	–	100 µg/mL	–
COC1=CC(=O)C[C@@H](C)[C@]12Oc1c(Cl)c(OC)cc(OC)c1C2=O [GRISEOFULVIN]	–	–	–	100 µg/mL (≈ 283 µM)	–	–	–	500 µg/mL (≈ 1420 µM)	–
Cc1ccc2c(c1)cc(-c1nc3cc(C)ccc3[nH]1)c1nnnn12	500 µg/mL (≈ 1590 µM)	500 µg/mL (≈ 1590 µM)	250 µg/mL (≈ 795 µM)	> 1000 µg/mL	1000 µg/mL (≈ 3180 µM)	500 µg/mL (≈ 1590 µM)	500 µg/mL (≈ 1590 µM)	1000 µg/mL (≈ 3180 µM)	–
Clc1ccc2c(c1)cc(-c1nc3cc(Cl)ccc3[nH]1)c1nnnn12	500 µg/mL (≈ 1410 µM)	250 µg/mL (≈ 704 µM)	125 µg/mL (≈ 352 µM)	> 1000 µg/mL	500 µg/mL (≈ 1410 µM)	250 µg/mL (≈ 704 µM)	125 µg/mL (≈ 352 µM)	1000 µg/mL (≈ 2820 µM)	–
Cc1ccc2c(c1)cc(-c1nc3ccccc3[nH]1)c1nnnn12	250 µg/mL (≈ 832 µM)	200 µg/mL (≈ 666 µM)	100 µg/mL (≈ 333 µM)	1000 µg/mL (≈ 3330 µM)	125 µg/mL (≈ 416 µM)	200 µg/mL (≈ 666 µM)	100 µg/mL (≈ 333 µM)	1000 µg/mL (≈ 3330 µM)	–
CC1(C)S[C@@H]2[C@H](NC(=O)[C@H](N)c3ccccc3)C(=O)N2[C@H]1C(=O)O [AMPICILLIN]	100 µg/mL (≈ 286 µM)	250 µg/mL (≈ 715 µM)	100 µg/mL (≈ 286 µM)	–	100 µg/mL (≈ 286 µM)	100 µg/mL (≈ 286 µM)	250 µg/mL (≈ 715 µM)	–	–
O=C(O)c1cn(C2CC2)c2cc(N3CCNCC3)c(F)cc2c1=O [CIPROFLOXACIN]	25 µg/mL (≈ 75.4 µM)	–	25 µg/mL (≈ 75.4 µM)	–	25 µg/mL (≈ 75.4 µM)	50 µg/mL (≈ 151 µM)	–	–	–
O=C(N[C@H](CO)[C@H](O)c1ccc([N+](=O)[O-])cc1)C(Cl)Cl [CHLORAMPHENICOL]	50 µg/mL (≈ 155 µM)	50 µg/mL (≈ 155 µM)	50 µg/mL (≈ 155 µM)	–	50 µg/mL (≈ 155 µM)	50 µg/mL (≈ 155 µM)	50 µg/mL (≈ 155 µM)	–	–
CCn1cc(C(=O)O)c(=O)c2cc(F)c(N3CCNCC3)cc21 [NORFLOXACIN]	10 µg/mL (≈ 31.3 µM)	50 µg/mL (≈ 157 µM)	10 µg/mL (≈ 31.3 µM)	–	10 µg/mL (≈ 31.3 µM)	10 µg/mL (≈ 31.3 µM)	100 µg/mL (≈ 313 µM)	–	–
COc1ccc2c(c1)cc(-c1nc3cc(C)ccc3[nH]1)c1nnnn12	500 µg/mL (≈ 1510 µM)	250 µg/mL (≈ 757 µM)	500 µg/mL (≈ 1510 µM)	500 µg/mL (≈ 1510 µM)	500 µg/mL (≈ 1510 µM)	500 µg/mL (≈ 1510 µM)	500 µg/mL (≈ 1510 µM)	250 µg/mL (≈ 757 µM)	–
Brc1ccc2[nH]c(-c3cc4ccccc4n4nnnc34)nc2c1	250 µg/mL (≈ 685 µM)	250 µg/mL (≈ 685 µM)	100 µg/mL (≈ 274 µM)	1000 µg/mL (≈ 2740 µM)	100 µg/mL (≈ 274 µM)	250 µg/mL (≈ 685 µM)	500 µg/mL (≈ 1370 µM)	1000 µg/mL (≈ 2740 µM)	–
c1ccc2c(c1)cc(-c1nc3ccccc3[nH]1)c1nnnn12	200 µg/mL (≈ 699 µM)	250 µg/mL (≈ 873 µM)	500 µg/mL (≈ 1750 µM)	> 1000 µg/mL	500 µg/mL (≈ 1750 µM)	500 µg/mL (≈ 1750 µM)	200 µg/mL (≈ 699 µM)	1000 µg/mL (≈ 3490 µM)	–
COc1ccc2c(c1)cc(-c1nc3ccccc3[nH]1)c1nnnn12	250 µg/mL (≈ 790 µM)	500 µg/mL (≈ 1580 µM)	250 µg/mL (≈ 790 µM)	1000 µg/mL (≈ 3160 µM)	250 µg/mL (≈ 790 µM)	250 µg/mL (≈ 790 µM)	250 µg/mL (≈ 790 µM)	500 µg/mL (≈ 1580 µM)	–
Clc1ccc2c(c1)cc(-c1nc3ccccc3[nH]1)c1nnnn12	500 µg/mL (≈ 1560 µM)	250 µg/mL (≈ 779 µM)	1000 µg/mL (≈ 3120 µM)	500 µg/mL (≈ 1560 µM)	250 µg/mL (≈ 779 µM)	500 µg/mL (≈ 1560 µM)	250 µg/mL (≈ 779 µM)	125 µg/mL (≈ 390 µM)	–
Clc1ccc2c(c1)cc(-c1nc3cc(Br)ccc3[nH]1)c1nnnn12	500 µg/mL (≈ 1250 µM)	500 µg/mL (≈ 1250 µM)	250 µg/mL (≈ 626 µM)	> 1000 µg/mL	250 µg/mL (≈ 626 µM)	500 µg/mL (≈ 1250 µM)	250 µg/mL (≈ 626 µM)	1000 µg/mL (≈ 2500 µM)	–
GENTAMICIN	5 µg/mL	5 µg/mL	0.05 µg/mL	–	–	0.5 µg/mL	1 µg/mL	–	5 µg/mL
Cc1ccc2[nH]c(-c3cc4cc(Cl)ccc4n4nnnc34)nc2c1	250 µg/mL (≈ 747 µM)	500 µg/mL (≈ 1490 µM)	250 µg/mL (≈ 747 µM)	> 1000 µg/mL	500 µg/mL (≈ 1490 µM)	250 µg/mL (≈ 747 µM)	125 µg/mL (≈ 373 µM)	1000 µg/mL (≈ 2990 µM)	–
